Measurements as given in patent EP1046401A2, “Fatty acid derivative labelled with a radioactive transition metal” (NIHON MEDI-PHYSICS Co., Ltd., priority 1999, dated 2000).

Columns and labels:
liver slice [1] = assay: Determination of the metabolites by in vitro test (liver slice, reversed phase HPLC); assay type: in vitro ADME, rat; conditions: 2-bromooctanoic acid added as inhibitor for the β-oxidation, liver slice incubation
Experimental: (§1) Under anesthetized, a rat was subjected to celiotomy and bleeded by perfusion via the portal vein with 20 mM of tris-HCl buffer solution (containing 100 mM of potassium chloride, 5 mM of magnesium chloride, 5 mM of potassium dihydrogen phosphate, pH 7.4) which is saturated with O2/CO2 (95/5) gas. Then, the liver was excised and pieces of liver slice having the thickness of 300 µm were prepared by using Stadie, Riggs type of slicer (manufactures by NATSUME SEISAKUSHO). After weighing, each pieces of liver slices were divided into two groups. […] The samples were analyzed by reversed phase HPLC under the same conditions employed in Determination of metabolites by in vivo test. Survival rate of the cells in the liver slice sample used in the test was determined by measuring the activity of lactic acid dehydrogenase (LDH) leaked into the culture medium. […]
In conducting the in vitro experiment for determining the metabolite more than 90% of the radioactivity in liver homogenate was extracted.
21.2 ± 3.0% of the whole radioactivity was eluted at the fraction retained at 17 minutes. […]

liver slice [2] = assay: Survival of cells in the liver slice by lactic acid dehydrogenase (LDH) leaked into the medium; assay type: cell-based, rat; conditions: inhibition group (2-bromooctanoic acid 100 µM), at the termination point of experiments; no significant difference from control group
Experimental: as §1, with “groups. One is inhibiting group which was preincubated in 20mM tris-HCl buffer solution at 37°C for 5 minutes, in the presence of 2-bromooctanoic acid (the final concentration: 100 µM) as β-oxidation inhibitor, and another one is control group which was preincubated in 20 mM tris-HCl buffer solution at 37°C for 5 minutes, without the inhibitor. Next, [^99mTc]MAMA-HA (3.7 MBq) was added, and incubation was carried out under bubbling O2/CO2 (95/5) gas at 37°C for 60 minutes with shaking 60 times per minute.” for “groups.”

With `CCCCCCC(Br)C(=O)O` (centres unmarked) [2-bromooctanoic acid] the “formation of [^99mTc]MAMA-BA from [^99mTc]MAMA-HA” value (liver slice [1]) was “inhibited completely” and the LDH activities (liver slice [2]) was 3,285 ± 367 IU/L.
